According to patent EP0071535B1, “(4-(2 and/or 3-Thienylacetamido)-phenoxy)-hydroxyaminopropanes, their preparation, their therapeutic use and intermediates” (CARPIBEM (CENTRE D'ACTIVITE ET DE RECHERCHE PHARMACEUTIQUE …, priority 1981, dated 1983):

Assays:
[1] = test system: effets β1 (augmentation de la force contractile du myocarde) de l'isoprénaline; assay: β-blocking activity: inhibition of the β1 effects of intravenous isoprenaline in anaesthetised dogs; assay type: in vivo, chiens; conditions: Canis lupus familiaris, iv, dog, inhibition given with negative sign, read-out: % d'inhibition des effets β1^(+) de l'Isoprénaline; for inhibition at 0.001 mg/kg: 0,001 mg/kg I.V.; for inhibition at 0.003 mg/kg: 0,003 mg/kg I.V.; for inhibition at 0.01 mg/kg: 0,010 mg/kg I.V.; for inhibition at 0.1 mg/kg: 0,100 mg/kg I.V.
Experimental: (§1) Des chiens tout-venants mâles ou femelles sont anesthésiés au mébubarbital sodique (30 mg/kg I.V.) et ventilés artificiellement par une pompe Pesty RPP. Ils sont supplémentés en oxygène.
(§2) On mesure: • - la pression carotidienne systolique et diastolique • - la force contractile du myocarde.
(§3) Les signaux sont amplifiés et enregistrés sur Dynograph Beckman.
(§4) L'activité β bloquante adrénergique a été étudiée vis-à-vis des effets β1 (augmentation de la force contractile du myocarde) et des effets P2 (diminution de la pression artérielle disstolique) de l'isoprénaline administrée par voie intraveineuse.
(§5) On calcule le pourcentsge d'inhibition des effets β1 et des effets β2 de l'isoprénaline en fonction des doses (mg.kg I.V.) des différents exemples.
(§6) Les exemples sont injectés dans le veine saphène aux doses (exprimées en base) de: 0,0003 0,001 0,003 0,01 0,1 1,0 et 4,0 ou 8,0 mg.kg-1.

[2] = test system: effets β2 (diminution de la pression artérielle diastolique) de l'isoprénaline; assay: β-blocking activity: inhibition of the β2 effects of intravenous isoprenaline in anaesthetised dogs; assay type: in vivo, chiens; conditions: Canis lupus familiaris, iv, dog, inhibition given with negative sign, read-out: % d'inhibition des effets β2^⊕ de l'Isoprénaline; for inhibition at 0.001 mg/kg: 0,001 mg/kg I.V.; for inhibition at 0.003 mg/kg: 0,003 mg/kg I.V.; for inhibition at 0.01 mg/kg: 0,010 mg/kg I.V.; for inhibition at 0.1 mg/kg: 0,100 mg/kg I.V.
Experimental: as §1, §2, §3, §4, §5, §6

[3] = test system: rat génétiquement hypertendu: Rat OKAMOTO; assay: Antihypertensive activity in spontaneously hypertensive rats (tail-cuff systolic pressure and heart rate after oral dosing); assay type: in vivo
Experimental: Des rats mâles âgés de 13 à 21 semaines présentant une hypertension spontanée génétiquement transmissible (souche OKAMOTO provenance IFFA CREDO) sont placés dans une enceinte thermostatée à 38°C. Les rats sont laissés en situation libre. La pression artérielle est mesurée par un sphygmomanomètre Narco Biosystem. Un manchon est placé à la base de la queue et un détecteur enregistre le pouls en aval du manchon. Celui-ci est gonflé jusqu'à suppression du pouls il est ensuite progressivement dégonflé. La pression mesurée à la reprise des battements cardiaques est la pression artérielle systolique. On calcule la fréquence cardiaque à partir de l'enregistrement du pouls artériel. Les produits à étudiar sont mis en suspension el administrés par voie orale sous un volume de 1 ml pour 100 g de poids corporel. Les mesures sont répétées à intervalles réguliers.
Les valeurs moyennes avant traitement pour les différents lots de rats sont pour la pression artérielle systolique de 190 à 200 mmHg et pour la fréquence cardiaque de 305 à 350 battements par minute.
Le tableau III ci-après donne la moyenne des variations de la pression systolique (mmHg) de la fréquence cardisque (battements/minute) et les écarts type à la moyenne obtenus 1 heure 3 heures et 5 heures après administration orale.

| SMILES | inhibition at 0.001 mg/kg [1] [%] | inhibition at 0.003 mg/kg [1] [%] | inhibition at 0.01 mg/kg [1] [%] | inhibition at 0.1 mg/kg [1] [%] | inhibition at 0.001 mg/kg [2] [%] | inhibition at 0.003 mg/kg [2] [%] | inhibition at 0.01 mg/kg [2] [%] | inhibition at 0.1 mg/kg [2] [%] | Fréquence cardiaque Δ (battements/min) T+1 heure m (sm) ([3]; 128 mg.kg^-1 V.O) | Pression systolique Δ (mmHg) T+1 heure m (sm) ([3]; 128 mg.kg^-1 V.O) | Fréquence cardiaque Δ (battements/min) T+3 heures m (sm) ([3]; 128 mg.kg^-1 V.O) | Pression systolique Δ (mmHg) T+3 heures m (sm) ([3]; 128 mg.kg^-1 V.O) | Fréquence cardiaque Δ (battements/min) T+5 heures m (sm) ([3]; 128 mg.kg^-1 V.O) | Pression systolique Δ (mmHg) T+5 heures m (sm) ([3]; 128 mg.kg^-1 V.O) | Fréquence cardiaque Δ (battements/min) T+1 heure m (sm) ([3]; 64 mg.kg^-1 V.O) | Pression systolique Δ (mmHg) T+1 heure m (sm) ([3]; 64 mg.kg^-1 V.O) | Pression systolique Δ (mmHg) T+3 heures m (sm) ([3]; 64 mg.kg^-1 V.O) | Fréquence cardiaque Δ (battements/min) T+5 heures m (sm) ([3]; 64 mg.kg^-1 V.O) | Pression systolique Δ (mmHg) T+5 heures m (sm) ([3]; 64 mg.kg^-1 V.O) | Fréquence cardiaque Δ (battements/min) T+3 heures m (sm) ([3]; 64 mg.kg^-1 V.O) |
| --- | --- | --- | --- | --- | --- | --- | --- | --- | --- | --- | --- | --- | --- | --- | --- | --- | --- | --- | --- | --- |
| CC(C)NCC(O)COc1ccc(NC(=O)Cc2cccs2)cc1Br (stereo not shown) [exemple 40, 1-[2-bromo 4-(2-thiénylacétamido)phénoxy] 3-isopropylamino 2-propanol] | 0 | -19 | -53 | -93 | 0 | 0 | 0 | -4 | +23 (23) battements/min | -58 (10) mmHg | +20 (14) battements/min | -63 (7) mmHg | +18 (11) battements/min | -63 (3) mmHg | – | – | – | – | – | – |
| CC(C)(C)NCC(O)COc1ccc(NC(=O)Cc2ccsc2)cc1Cl (stereo not shown) [exemple 45, 1-[2-chloro 4-(3-thiénylacétamido)phénoxy] 3-terbutylamino 2-propanol] | -30 | -60 | -86 | -100 | -12 | -5 | -23 | -33 | – | – | – | – | – | – | +45 (6) battements/min | -32 (5) mmHg | -14 (9) mmHg | +30 (10) battements/min | -28 (5) mmHg | – |
| CC(C)(C)NCC(O)COc1ccc(NC(=O)Cc2cccs2)cc1Cl (stereo not shown) [exemple 43, 1-[2-chloro 4-(2-thiénylacétamido)phénoxy] 3-terbutylamino 2-propanol] | -18 | -49 | -82 | -100 | 0 | 0 | 0 | -22 | – | – | – | – | – | – | +13 (20) battements/min | -29 (9) mmHg | -44 (6) mmHg | +30 (12) battements/min | -44 (4) mmHg | +23 (7) battements/min |
| CC(C)NCC(O)COc1ccc(NC(=O)Cc2cccs2)cc1F (stereo not shown) [exemple 48, 1-[2-fluoro 4-(2-thiénylacétamido)phénoxy] 3-isopropylamino 2-propanol] | -11 | -23 | -41 | -83 | -27 | -31 | -46 | -52 | – | – | – | – | – | – | +38 (10) battements/min | -51 (6) mmHg | -50 (6) mmHg | +27 (10) battements/min | -45 (6) mmHg | +41 (8) battements/min |
